According to patent US20230220029A1, “ANTIVIRAL […] AND USES THEREOF” (VIRGINIA COMMONWEALTH UNIVERSITY, priority 2020, published 2023):
Where a SMILES comes first, the peptide text is derived from it.

Legend:
SARS-CoV-2, USA-WA1/2020 = conditions: USA-WA1/2020, 1 h, 200 μM
[1] = target: HRP-conjugated-S-protein-RBD binding to hACE2 (Severe acute respiratory syndrome coronavirus 2, UniProt P0DTC2); test: biochemical; parameters: species or system SARS-CoV-2; conditions: sVNT ELISA, dose-dependent, FIG. 4
[2] = Peptide stability by repeating the sVNT ELISA two months apart with the same solubilized peptide; type: physicochemical; conditions: ELISA tests two months apart with the same solubilized peptide
Source text: FIGS. 4A-B. Surrogate virus test results for peptide 122023-C. FIG. 4A are results obtained in a first experiment and FIG. 4B are results obtained in a second experiment two months later using the same solubilized peptide.

[3] = target: HRP-conjugated-S-protein-RBD (SARS-CoV-2), P0DTC2

With CC(C)C[C@H](NC(=O)[C@H](CCC(N)=O)NC(=O)[C@H](CCC(=O)O)NC(=O)[C@H](C)NC(=O)[C@H](Cc1ccccc1)NC(=O)[C@H](CCCNC(=N)N)NC(=O)[C@H](CCC(=O)O)NC(=O)[C@H](CC(C)C)NC(=O)[C@H](Cc1ccccc1)NC(=O)[C@H](Cc1ccc(O)cc1)NC(=O)[C@H](CCCCN)NC(=O)[C@H](CC(C)C)NC(=O)[C@H](CCC(N)=O)NC(=O)[C@H](CCC(N)=O)NC(=O)[C@@H](N)CCC(=O)O)C(=O)N[C@@H](CCC(=O)O)C(=O)N[C@@H](CCC(N)=O)C(=O)N[C@@H](CC(C)C)C(=O)N[C@@H](Cc1ccccc1)C(=O)N[C@@H](Cc1ccc(O)cc1)C(=O)N[C@@H](CCC(N)=O)C(=O)N[C@@H](CO)C(=O)N[C@@H](CO)C(=O)O [Peptide 122023-A] (H-EQQLKYFLERFAEQLEQLFYQSS-OH; N-terminus and C-terminus assumed) the “inhibition at the highest concentration studied” value (SARS-CoV-2, USA-WA1/2020) was “up to 95%”.

With CC(C)C[C@H](NC(=O)[C@H](CC(=O)O)NC(=O)[C@H](CCC(=O)O)NC(=O)[C@H](CC(C)C)NC(=O)[C@H](CCC(N)=O)NC(=O)[C@H](CCC(=O)O)NC(=O)[C@H](CC(N)=O)NC(=O)[C@H](Cc1ccccc1)NC(=O)[C@H](CCCNC(=N)N)NC(=O)[C@H](CCC(=O)O)NC(=O)[C@H](CC(C)C)NC(=O)[C@H](Cc1ccccc1)NC(=O)[C@H](Cc1ccc(O)cc1)NC(=O)[C@H](CCCCN)NC(=O)[C@H](CC(C)C)NC(=O)[C@H](CCC(N)=O)NC(=O)[C@H](CCC(N)=O)NC(=O)[C@@H](N)CCC(=O)O)C(=O)N[C@@H](Cc1ccccc1)C(=O)N[C@@H](Cc1ccc(O)cc1)C(=O)N[C@@H](CCC(N)=O)C(=O)N[C@@H](CO)C(=O)N[C@@H](CO)C(=O)O [Peptide 122023-C] (H-EQQLKYFLERFNEQLEDLFYQSS-OH) the IC50 [1] was roughly 0.0338 µM and the peptide stability [2] was “Excellent peptide stability”.

B1: peptide 122023-C (peptide)
peptide: EQQLKYFLERFNEQLEDLFYQSS
modifications: not checked
Molecule B1 has an IC50 [3] of 0.1 mg/L.
